# Key:
# non-constipation IBS = assay: Combined first and second studies (TARGET 1 and 2): pooled efficacy, sustained response and recurrence; assay type: in vivo, human; parameters: Responders: abdominal pain reduction of 2 point in median / Responders: abdominal pain reduction of 3 point in median / Responders: abdominal pain reduction of 1 point in weekly median / Responders: abdominal pain reduction of 1 point in weekly mean / Responders: abdominal pain reduction of 2 point in mean: concentration or dose not given beside the values
# Description: A measure of efficacy is based on subjects' answers to the Weekly Subject Global Assessment (SGA) questions over the study duration in relation to their IBS symptoms.
# An evaluation of the enrolled subjects was carried out after the Primary Evaluation Period in the study described in Examples 5-7. […] Subjects with no recurrence are defined as having a stool consistency score of less than 4, abdominal pain reduced by at least 30 percent or both.
# CYP3A4 = CYP3A4 (Homo sapiens, UniProt P08684); assay: In vitro cytochrome P450 inhibition; assay type: biochemical; details: 2 to 200 ng/mL
# Sequence of CYP3A4 (P08684 whole entry): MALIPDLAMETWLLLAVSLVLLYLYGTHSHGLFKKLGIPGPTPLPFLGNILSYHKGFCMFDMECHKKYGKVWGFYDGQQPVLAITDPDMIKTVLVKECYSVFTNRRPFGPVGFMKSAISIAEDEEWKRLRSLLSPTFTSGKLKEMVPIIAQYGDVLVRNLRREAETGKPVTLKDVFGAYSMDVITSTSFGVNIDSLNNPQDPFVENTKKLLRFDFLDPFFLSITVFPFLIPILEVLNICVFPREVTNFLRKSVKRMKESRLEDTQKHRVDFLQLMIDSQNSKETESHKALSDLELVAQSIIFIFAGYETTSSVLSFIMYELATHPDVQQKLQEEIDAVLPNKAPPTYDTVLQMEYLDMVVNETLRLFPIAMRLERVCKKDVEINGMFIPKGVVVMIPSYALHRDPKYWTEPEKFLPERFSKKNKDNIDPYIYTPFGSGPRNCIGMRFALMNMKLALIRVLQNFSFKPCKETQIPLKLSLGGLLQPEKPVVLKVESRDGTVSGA
# [1] = Combined, at least 2 weeks during PEP
# [2] = Rolling 2-5 Weeks, Rifaximin (N = 624), n (%)
# [3] = Rolling 3-6 Weeks, Rifaximin (N = 624), n (%)
# [4] = Rolling 4-7 Weeks, Rifaximin (N = 624), n (%)
# [5] = Rolling 4 Weeks: 4-7 Weeks, N = 624
# [6] = Rolling 4 Weeks: 5-8 Weeks, N = 624
# [7] = Rolling 4 Weeks: 6-9 Weeks, N = 624
# [8] = Rolling 4 Weeks: 7-10 Weeks, N = 624
# [9] = Rolling 4 Weeks: 8-11 Weeks, N = 624
# [10] = Rolling 4 Weeks: 9-12 Weeks, N = 624
# [11] = Rolling 5-8 Weeks, Rifaximin (N = 624), n (%)
# [12] = Rolling 6-9 Weeks, Rifaximin (N = 624), n (%)
# [13] = Rolling 7-10 Weeks, Rifaximin (N = 624), n (%)
# [14] = Rolling 8-11 Weeks, Rifaximin (N = 624), n (%)
# [15] = Rolling 9-12 Weeks, Rifaximin (N = 624), n (%)
compound,measurement,setting,value
"CO[C@H]1/C=C/O[C@@]2(C)Oc3c(C)c(O)c4c(O)c(c5c(nc6cc(C)ccn65)c4c3C2=O)NC(=O)/C(C)=C\C=C\[C@H](C)[C@H](O)[C@@H](C)[C@@H](O)[C@@H](C)[C@H](OC(C)=O)[C@@H]1C [Rifaximin, (2S,16Z,18E,20S,21S,22R,23R,24R,25S,26S,27S,28E)-5,6,21,23,25 Pentahydroxy-27-methoxy-2,4,11,16,20,22,24,26-octamethyl-2,7-(epoxypentadeca-(1,11,13)trienimino) benzofuro (4,5-e) pyrido(1,2-a) benzimidazole-1,15(2H)-dione,25-acetate]",IBS symptom of bloating: adequate relief at least 2 out of 4 weeks during weeks 3 through 6 (weekly question),non-constipation IBS; Combined,40%
same,Global IBS symptoms: adequate relief at least 2 out of 4 weeks during weeks 3 through 6 (weekly question),"non-constipation IBS; Combined, 550 mg TID 14 d",32% vs 41%
same,Responders: abdominal pain reduction of 1 point in weekly mean,non-constipation IBS; [1],52%
same,Responders: abdominal pain reduction of 1 point in weekly median,non-constipation IBS; [1],63%
same,Responders: abdominal pain reduction of 2 point in mean,non-constipation IBS; [1],25%
same,Responders: abdominal pain reduction of 2 point in median,non-constipation IBS; [1],39%
same,Responders: abdominal pain reduction of 3 point in mean,non-constipation IBS; [1],6% vs 7%
same,Responders: abdominal pain reduction of 3 point in median,non-constipation IBS; [1],21%
same,Responders: daily abdominal pain < 2 for at least 50% of days in a week,non-constipation IBS; [1],39%
same,Responders: overall reduction of mean weekly abdominal pain by >= 25%,non-constipation IBS; [1],57%
same,Responders: overall reduction of mean weekly abdominal pain by >= 50%,non-constipation IBS; [1],35%
same,Responders: overall reduction of mean weekly abdominal pain by >= 75%,non-constipation IBS; [1],14%
same,Responders: overall reduction of median weekly abdominal pain by >= 25%,non-constipation IBS; [1],62%
same,Responders: overall reduction of median weekly abdominal pain by >= 50%,non-constipation IBS; [1],44%
same,Responders: overall reduction of median weekly abdominal pain by >= 75%,non-constipation IBS; [1],21%
same,"Sustained Durable Response (No Recurrence), Abdominal Pain & Stool Consistency: % of subjects",non-constipation IBS; N = 624,(33.2%)
same,"Sustained Durable Response (No Recurrence), Abdominal Pain & Stool Consistency: number of subjects",non-constipation IBS; N = 624,207
same,"Sustained Durable Response (No Recurrence), Abdominal Pain: % of subjects",non-constipation IBS; N = 624,(35.7%)
same,"Sustained Durable Response (No Recurrence), Abdominal Pain: number of subjects",non-constipation IBS; N = 624,223
same,"Sustained Durable Response (No Recurrence), Stool Consistency: % of subjects",non-constipation IBS; N = 624,(68.9%)
same,"Sustained Durable Response (No Recurrence), Stool Consistency: number of subjects",non-constipation IBS; N = 624,430
same,"Abdominal Pain or Stool Consistency, Sustained Durable Response","non-constipation IBS; Rifaximin (N = 624), n (%)",180 (28.8%)
same,"Abdominal Pain or Stool Consistency, No Recurrence",non-constipation IBS; [2],286 (45.8%)
same,"Abdominal Pain or Stool Consistency, Recurrence",non-constipation IBS; [2],12 (1.9%)
same,"Abdominal Pain or Stool Consistency, No Recurrence",non-constipation IBS; [3],274 (43.9%)
same,"Abdominal Pain or Stool Consistency, Recurrence",non-constipation IBS; [3],23 (3.7%)
same,"Abdominal Pain or Stool Consistency, No Recurrence",non-constipation IBS; [4],251 (40.2%)
same,"Abdominal Pain or Stool Consistency, Recurrence",non-constipation IBS; [4],17 (2.7%)
same,"No Recurrence, Abdominal Pain & Stool Consistency: % of subjects",non-constipation IBS; [5],(48.2%)
same,"No Recurrence, Abdominal Pain & Stool Consistency: number of subjects",non-constipation IBS; [5],301
same,"No Recurrence, Abdominal Pain: % of subjects",non-constipation IBS; [5],(51.9%)
same,"No Recurrence, Abdominal Pain: number of subjects",non-constipation IBS; [5],324
same,"No Recurrence, Stool Consistency: % of subjects",non-constipation IBS; [5],(78.8%)
same,"No Recurrence, Stool Consistency: number of subjects",non-constipation IBS; [5],492
same,"Recurrence, Abdominal Pain & Stool Consistency: % of subjects",non-constipation IBS; [5],3.7%
same,"Recurrence, Abdominal Pain & Stool Consistency: number of subjects",non-constipation IBS; [5],23
same,"Recurrence, Abdominal Pain: % of subjects",non-constipation IBS; [5],3.8%
same,"Recurrence, Abdominal Pain: number of subjects",non-constipation IBS; [5],24
same,"Recurrence, Stool Consistency: % of subjects",non-constipation IBS; [5],1.3%
same,"Recurrence, Stool Consistency: number of subjects",non-constipation IBS; [5],8
same,"No Recurrence, Abdominal Pain & Stool Consistency: % of subjects",non-constipation IBS; [6],(44.6%)
same,"No Recurrence, Abdominal Pain & Stool Consistency: number of subjects",non-constipation IBS; [6],278
same,"No Recurrence, Abdominal Pain: % of subjects",non-constipation IBS; [6],(48.1%)
same,"No Recurrence, Abdominal Pain: number of subjects",non-constipation IBS; [6],300
same,"No Recurrence, Stool Consistency: % of subjects",non-constipation IBS; [6],(77.6%)
same,"No Recurrence, Stool Consistency: number of subjects",non-constipation IBS; [6],484
same,"Recurrence, Abdominal Pain & Stool Consistency: % of subjects",non-constipation IBS; [6],3.2%
same,"Recurrence, Abdominal Pain & Stool Consistency: number of subjects",non-constipation IBS; [6],20
same,"Recurrence, Abdominal Pain: % of subjects",non-constipation IBS; [6],3.0%
same,"Recurrence, Abdominal Pain: number of subjects",non-constipation IBS; [6],19
same,"Recurrence, Stool Consistency: % of subjects",non-constipation IBS; [6],2.1%
same,"Recurrence, Stool Consistency: number of subjects",non-constipation IBS; [6],13
same,"No Recurrence, Abdominal Pain & Stool Consistency: % of subjects",non-constipation IBS; [7],(41.3%)
same,"No Recurrence, Abdominal Pain & Stool Consistency: number of subjects",non-constipation IBS; [7],258
same,"No Recurrence, Abdominal Pain: % of subjects",non-constipation IBS; [7],(45.0%)
same,"No Recurrence, Abdominal Pain: number of subjects",non-constipation IBS; [7],281
same,"No Recurrence, Stool Consistency: % of subjects",non-constipation IBS; [7],(75.5%)
same,"No Recurrence, Stool Consistency: number of subjects",non-constipation IBS; [7],471
same,"Recurrence, Abdominal Pain & Stool Consistency: % of subjects",non-constipation IBS; [7],2.2%
same,"Recurrence, Abdominal Pain & Stool Consistency: number of subjects",non-constipation IBS; [7],14
same,"Recurrence, Abdominal Pain: % of subjects",non-constipation IBS; [7],2.4%
same,"Recurrence, Abdominal Pain: number of subjects",non-constipation IBS; [7],15
same,"Recurrence, Stool Consistency: % of subjects",non-constipation IBS; [7],2.6%
same,"Recurrence, Stool Consistency: number of subjects",non-constipation IBS; [7],16
same,"No Recurrence, Abdominal Pain & Stool Consistency: % of subjects",non-constipation IBS; [8],(39.1%)
same,"No Recurrence, Abdominal Pain & Stool Consistency: number of subjects",non-constipation IBS; [8],244
same,"No Recurrence, Abdominal Pain: % of subjects",non-constipation IBS; [8],(42.6%)
same,"No Recurrence, Abdominal Pain: number of subjects",non-constipation IBS; [8],266
same,"No Recurrence, Stool Consistency: % of subjects",non-constipation IBS; [8],(72.9%)
same,"No Recurrence, Stool Consistency: number of subjects",non-constipation IBS; [8],455
same,"Recurrence, Abdominal Pain & Stool Consistency: % of subjects",non-constipation IBS; [8],1.8%
same,"Recurrence, Abdominal Pain & Stool Consistency: number of subjects",non-constipation IBS; [8],11
same,"Recurrence, Abdominal Pain: % of subjects",non-constipation IBS; [8],2.4%
same,"Recurrence, Abdominal Pain: number of subjects",non-constipation IBS; [8],15
same,"Recurrence, Stool Consistency: % of subjects",non-constipation IBS; [8],1.4%
same,"Recurrence, Stool Consistency: number of subjects",non-constipation IBS; [8],9
same,"No Recurrence, Abdominal Pain & Stool Consistency: % of subjects",non-constipation IBS; [9],(37.3%)
same,"No Recurrence, Abdominal Pain & Stool Consistency: number of subjects",non-constipation IBS; [9],233
same,"No Recurrence, Abdominal Pain: % of subjects",non-constipation IBS; [9],(40.2%)
same,"No Recurrence, Abdominal Pain: number of subjects",non-constipation IBS; [9],251
same,"No Recurrence, Stool Consistency: % of subjects",non-constipation IBS; [9],(71.5%)
same,"No Recurrence, Stool Consistency: number of subjects",non-constipation IBS; [9],446
same,"Recurrence, Abdominal Pain & Stool Consistency: % of subjects",non-constipation IBS; [9],2.2%
same,"Recurrence, Abdominal Pain & Stool Consistency: number of subjects",non-constipation IBS; [9],14
same,"Recurrence, Abdominal Pain: % of subjects",non-constipation IBS; [9],2.2%
same,"Recurrence, Abdominal Pain: number of subjects",non-constipation IBS; [9],14
same,"Recurrence, Stool Consistency: % of subjects",non-constipation IBS; [9],0.5%
same,"Recurrence, Stool Consistency: number of subjects",non-constipation IBS; [9],3
same,"No Recurrence, Abdominal Pain & Stool Consistency: % of subjects",non-constipation IBS; [10],(35.1%)
same,"No Recurrence, Abdominal Pain & Stool Consistency: number of subjects",non-constipation IBS; [10],219
same,"No Recurrence, Abdominal Pain: % of subjects",non-constipation IBS; [10],(38.0%)
same,"No Recurrence, Abdominal Pain: number of subjects",non-constipation IBS; [10],237
same,"No Recurrence, Stool Consistency: % of subjects",non-constipation IBS; [10],(71.0%)
same,"No Recurrence, Stool Consistency: number of subjects",non-constipation IBS; [10],443
same,"Recurrence, Abdominal Pain & Stool Consistency: % of subjects",non-constipation IBS; [10],1.9%
same,"Recurrence, Abdominal Pain & Stool Consistency: number of subjects",non-constipation IBS; [10],12
same,"Recurrence, Abdominal Pain: % of subjects",non-constipation IBS; [10],2.2%
same,"Recurrence, Abdominal Pain: number of subjects",non-constipation IBS; [10],14
same,"Recurrence, Stool Consistency: % of subjects",non-constipation IBS; [10],2.1%
same,"Recurrence, Stool Consistency: number of subjects",non-constipation IBS; [10],13
same,"Abdominal Pain or Stool Consistency, No Recurrence",non-constipation IBS; [11],234 (37.5%)
same,"Abdominal Pain or Stool Consistency, Recurrence",non-constipation IBS; [11],16 (2.6%)
same,"Abdominal Pain or Stool Consistency, No Recurrence",non-constipation IBS; [12],218 (34.9%)
same,"Abdominal Pain or Stool Consistency, Recurrence",non-constipation IBS; [12],10 (1.6%)
same,"Abdominal Pain or Stool Consistency, No Recurrence",non-constipation IBS; [13],208 (33.3%)
same,"Abdominal Pain or Stool Consistency, Recurrence",non-constipation IBS; [13],10 (1.6%)
same,"Abdominal Pain or Stool Consistency, No Recurrence",non-constipation IBS; [14],198 (31.7%)
same,"Abdominal Pain or Stool Consistency, Recurrence",non-constipation IBS; [14],8 (1.3%)
same,"Abdominal Pain or Stool Consistency, No Recurrence",non-constipation IBS; [15],190 (30.4%)
same,"Abdominal Pain or Stool Consistency, Recurrence",non-constipation IBS; [15],10 (1.6%)
same,Inhibition of CYP3A4,CYP3A4,does not inhibit
same,"Severe TEAEs, SAEs, deaths",overall in the study,"no severe TEAEs, SAEs, or deaths"
same,Subjects with a TEAE,rifaximin treatment period (7 subjects),25%

# Reference: US10610522B2, “Methods for retreating irritable bowel syndrome (IBS)” (Salix Pharmaceuticals, Inc., priority 2014, dated 2020)
